Assay: Cone/Plate Viscosity Measurement
Format: physicochemical
Details: composition such as C. Ex. 1; thickener level not stated
Protocol: The viscosity of the personal cleansing composition is measured by a Cone/Plate Brookfield DV12T, by Brookfield Engineering Laboratories, Stoughton, MA. The cone used (Spindle CPA-41z) has a diameter of […] and 3° angle. The viscosity is determined using a steady state flow experiment at constant shear rate of 2 s^−1 and at temperature of 26.5° C. The sample size is 2.5 mL.

- Effect of a thickener on enhancing the viscosity of a personal cleansing composition: good response
Substance: cocamide MEA
